Results: publication PMC9861212 (Metabolites, 2022)
Where two headings read alike, the source gives them in different places.

Legend:
[1] = Metabolite profile of SMZ in chickens (LC-v.ARC/MS-IT-TOF); type: in vivo; conditions: for Share of the total radioactivity in feces: 0.5–1 d after administration; for Percentage of the individual metabolite compared with total concentration of SMZ-related compounds: within 12 h after dosing
Method: (§1) (0.1 Ci/g). […] Urine and feces samples were stored at −80 °C.
(§2) The weight of each aliquot was 0.1% of the total fraction weight (0.25% for urine). Each sample was centrifuged at 4 °C for 5 min at 4000 rpm/min. The supernatant was collected and 2 mol/L methanol-mixed acid (methanol: 0.5% perchloric acid, 8:1, v:v) was added. Then, the mixture was centrifugated at 10,000 r/min for 10 min, the supernatant was collected and dried with nitrogen at 45 °C. […] The mixture was subjected to Liquid Chromatography tandem on-line isotope detector/Time of Flight Mass Spectrometry (LC-ν.ARC/MS-IT-TOF) system analysis.
(§3) The mixture was prepared for LC-ν. ARC/MS-IT-TOF system analysis.
(§4) X is the percentage of the individual radioactive substances within the total radioactive residues. AUCM is the area under the curve of the individual radioactive substances in the specific samples. AUCT is the area under the curve of the total radioactive residues in the specific samples.

[2] = Tissue distribution and residue depletion in chickens; conditions: for Concentration of the metabolites in kidney: oral gavage 25 mg/kg twice a day for 7 d, 3 d
Method: In addition, the animals in the blank group (pigs and chickens) and the animals in the treatment group were given physiological saline and 0.5% carboxymethyl cellulose aqueous solution in exactly the same dose and in exactly the same way. […] The same as above, at each sampling time point, a non-administered animal was killed and a sample was taken to obtain a blank sample. The medication groups samples and blank samples were washed and their weight was recorded. Afterwards, all samples were homogenized and divided into two parts. One part was used to detect the total radioactivity, and the other part was used for SMZ and metabolite analysis.
(§5) The total radioactivity in the samples were measured by Packard Tricarb 2900 liquid scintillation analyzer (LSC). The pretreated 200 μL liquid sample (urine, blood, and bile) was taken and 10 mL of Ultima Gold scintillation fluid was added for total radioactivity detection by LSC. Then, 200 mg of solid samples (feces and tissues) were accurately weighed, and 2 mL of digestion solution were added and mixed well, then the samples were placed in a 55 °C water bath for 6 h, and cooled to room temperature for later use. Then, 0.1 mol/L disodium edetate (EDTA-2Na) and 30% H2O2 of 200 μL were added and mixed evenly. At room temperature, 10 mL Ultima Gold scintillation fluid was added, and radioactivity determination was performed after standing [21].
The feces and tissues (2 g) were extracted with 10 mL methanol and water (4:1, v:v). The mixture was vortexed and sonicated for 5 min and 10 min, respectively, and finally the samples were centrifugated at 8000 rpm/min for 10 min. The supernatants were transferred into a new centrifuge tube and the residues were further extracted with 10 mL methanol and water (4:1, v:v). The supernatants were combined and evaporated to dryness under a nitrogen stream at 45 °C. The residues were dissolved with 0.5 mL of mobile phase and vortexed mixed for 30 s. Then, 1 mL n-hexane was added to remove the lipid, the mixture was vortexed evenly mixed, centrifugated at 10,000 rpm/min for 10 min and the n-hexane layer was discarded. […] The SMZ and its metabolites in the prepared samples were determined by a ν. ARC radiation detector and a hybrid IT/TOF mass spectrometer connected to the HPLC system (Shimadzu Corp., Kyoto, Japan). The HPLC system was equipped with a solvent delivery pump (LC20AD), autosampler (SIL20AC), DGU20A3 degasser, photodiode array detector (SPDM20A), communication base module (CBM20A), and a column oven (CTO20AC). Separation was performed on a X Bridge C18 column (150 × 2.1 mm; 3.5 μm) using a gradient elution consisting of mobile phase A (0.1% formic acid in water) and mobile phase B (acetonitrile). […] Photo-diode array (PDA) detection was performed from 200 to 400 nm. The sample chamber in the autosampler was maintained at 4 °C, whereas the column was set at 25 °C. The total effluent from the detector was transferred directly to the hybrid IT-TOF mass spectrometer without splitting. Metabolites were isolated and identified using a Shimadzu high-performance liquid chromatography-mass spectrometry-ion trap-time-of-flight (LC-MS-IT-TOF) hybrid mass spectrometer equipped with an electrospray ionization (ESI) source and operated in the positive mode. The eluate from the chromatographic separation was divided into two portions.

[3] = Metabolite profile of SMZ in pigs (LC-v.ARC/MS-IT-TOF); type: in vivo; conditions: for Detection in feces: pig feces, 7 d after administration
Method: as §1
as §2, with “Each” for “The weight of each aliquot was 0.1% of the total fraction weight (0.25% for urine). Each”
as §3, §4

[4] = Metabolite profile of SMZ in rats (LC-v.ARC/MS-IT-TOF); type: in vivo; conditions: rat urine; after i.m. injection
Method: as §1, §2, §3, §4

[5] = cited from earlier work
[6] = Tissue distribution and residue depletion in pigs
Method: (§6) Another 6 rats were administered physiological saline at the same dose and in exactly the same way as the other animals. The same as above, at each sampling time point, a non-administered animal was killed and a sample was taken to obtain a blank sample. The medication groups samples and blank samples were washed and their weight was recorded. Afterwards, all samples were homogenized and divided into two parts. One part was used to detect the total radioactivity, and the other part was used for SMZ and metabolite analysis.
as §5
The feces and tissues (2 g) were extracted with 10 mL methanol and water (4:1, v:v). The mixture was vortexed and sonicated for 5 min and 10 min, respectively, and finally the samples were centrifugated at 8000 rpm/min for 10 min. The supernatants were transferred into a new centrifuge tube and the residues were further extracted with 10 mL methanol and water (4:1, v:v). The supernatants were combined and evaporated to dryness under a nitrogen stream at 45 °C. The residues were dissolved with 0.5 mL of mobile phase and vortexed mixed for 30 s. Then, 1 mL n-hexane was added to remove the lipid, the mixture was vortexed evenly mixed, centrifugated at 10,000 rpm/min for 10 min and the n-hexane layer was discarded. […] The SMZ and its metabolites in the prepared samples were determined by a ν. ARC radiation detector and a hybrid IT/TOF mass spectrometer connected to the HPLC system (Shimadzu Corp., Kyoto, Japan). The HPLC system was equipped with a solvent delivery pump (LC20AD), autosampler (SIL20AC), DGU20A3 degasser, photodiode array detector (SPDM20A), communication base module (CBM20A), and a column oven (CTO20AC). Separation was performed on a X Bridge C18 column (150 × 2.1 mm; 3.5 μm) using a gradient elution consisting of mobile phase A (0.1% formic acid in water) and mobile phase B (acetonitrile). […] Photo-diode array (PDA) detection was performed from 200 to 400 nm. The sample chamber in the autosampler was maintained at 4 °C, whereas the column was set at 25 °C. The total effluent from the detector was transferred directly to the hybrid IT-TOF mass spectrometer without splitting. Metabolites were isolated and identified using a Shimadzu high-performance liquid chromatography-mass spectrometry-ion trap-time-of-flight (LC-MS-IT-TOF) hybrid mass spectrometer equipped with an electrospray ionization (ESI) source and operated in the positive mode. The eluate from the chromatographic separation was divided into two portions. The portion for metabolic quantification was applied to a ν.ARC 2.0, and the rest was analyzed and identified by ion trap time-of-flight tandem mass spectrometry (IT-TOF-MS/MS). Radiochemical detection was performed using the ν.ARC 2.0 Radio-LC system Detector RS232 equipped with a 500 μL detector cell (AIM Research Co., Hockessin, DE, USA).

[7] = pigs, single i.m. 25 mg/kg b.w.
Method: (§7) Six Wistar rats (three females and three males), six chickens and four pigs were housed in clean metabolic cages. […] (0.1 Ci/g). The broiler chickens were given the same dose by oral gavage. According to the recommended guidelines, the urine and feces samples of these animals were collected at different time intervals. […] At the end of the experiment, all animals were anesthetized and sacrificed in accordance with euthanasia guidelines (AVMA, 2001). Urine and feces samples were stored at −80 °C.
as §5

[8] = chickens, single oral gavage 25 mg/kg b.w.
Method: as §7, §5

[9] = Tissue distribution and residue depletion in rats; conditions: single i.m. dose
Method: as §6
The total radioactivity in the samples were measured by Packard Tricarb 2900 liquid scintillation analyzer (LSC). The pretreated 200 μL liquid sample (urine, blood, and bile) was taken and 10 mL of Ultima Gold scintillation fluid was added for total radioactivity detection by LSC. […] At room temperature, 10 mL Ultima Gold scintillation fluid was added, and radioactivity determination was performed after standing [21].
The feces and tissues (2 g) were extracted with 10 mL methanol and water (4:1, v:v). […] The SMZ and its metabolites in the prepared samples were determined by a ν. […] The portion for metabolic quantification was applied to a ν.ARC 2.0, and the rest was analyzed and identified by ion trap time-of-flight tandem mass spectrometry (IT-TOF-MS/MS). […]

[10] = test system: TA100 strain of Salmonella typhimurium; conditions: cited from earlier work
[11] = pig, within 12 h after administration
[12] = chicken, 6 h after administration
[13] = female rats, single i.m. 25 mg/kg b.w., 0–0.5 d
[14] = female rats, single i.m. 25 mg/kg b.w., 0.5–1 d
[15] = female rats, single i.m. 25 mg/kg b.w., 1–3 d
[16] = female rats, single i.m. 25 mg/kg b.w., 3–7 d
[17] = female rats, single i.m. 25 mg/kg b.w., 7–14 d
[18] = female rats, single i.m. 25 mg/kg b.w., within 14 d
[19] = male rats, single i.m. 25 mg/kg b.w., 0–0.5 d
[20] = male rats, single i.m. 25 mg/kg b.w., 0.5–1 d
[21] = male rats, single i.m. 25 mg/kg b.w., 1–3 d
[22] = male rats, single i.m. 25 mg/kg b.w., 3–7 d
[23] = male rats, single i.m. 25 mg/kg b.w., 7–14 d
[24] = male rats, single i.m. 25 mg/kg b.w., within 14 d

Compound: Cc1cc(NS(=O)(=O)c2ccc(NS(=O)(=O)O)cc2)no1 [Compound S4, N4-sulfatesulfamethoxazole]
- Share of the total radioactivity in feces ([1]; chicken feces): 2.06%
- Concentration of the metabolites in kidney ([2]; chicken): not detected

Compound: Cc1cc(NS(=O)(=O)c2ccc(NC3OC(C(=O)O)C(O)C(O)C3O)cc2)no1 (stereo not drawn) [Compound S5, N4-glucuronidsulfamethoxazole]
- Detection in feces by LC-MS-IT-TOF ([1]; chicken feces, 12 h): trace amount
- Detection in urine by LC/MS-IT-TOF ([3]; pig urine, 0–0.5 d): trace amounts
- Detection in urine by LC-MS-IT-TOF [4]: trace amounts

Compound: Cc1cc(NS(=O)(=O)c2ccc(NO)cc2)no1 [Compound S3, N4-hydroxyamino sulfamethoxazole]
- Percentage of the individual metabolite compared with total concentration of SMZ-related compounds ([1]; chicken Extra (feces/excreta)): 4.4%
- Percentage of the individual metabolite compared with total concentration of SMZ-related compounds ([1]; chicken bile): not detected
- Share of the total radioactivity in feces ([1]; chicken feces): no longer detected
- Percentage of the individual metabolite compared with total concentration of SMZ-related compounds ([1]; chicken plasma (blood)): 0.9%
- Concentration of the metabolites in kidney ([2]; chicken): not detected
- Reactivity / direct cytotoxicity [5]: neither highly reactive nor directly cytotoxic

Compound: Nc1ccc(S(=O)(=O)Nc2cc(CO)on2)cc1 [Compound S2, 5-hydroxysulfamethoxazole]
- Percentage of the individual metabolite compared with total concentration of SMZ-related compounds ([1]; chicken Extra (feces/excreta)): 9.6%
- Percentage of the individual metabolite compared with total concentration of SMZ-related compounds ([1]; chicken bile): 2.5%
- Percentage of the individual metabolite compared with total concentration of SMZ-related compounds ([1]; chicken plasma (blood)): 1.2%
- Concentration of the metabolites in kidney ([2]; chicken): not detected

Compound: CC(=O)Nc1ccc(S(=O)(=O)Nc2cc(C)on2)cc1 [Compound S1, N4-acetyl-sulfamethoxazole]
- Detection in feces [3]: detected
- Share of the total residues in fat [6, 11]: 58.1%
- Share of the total residues in kidney [6, 11]: 66.5%
- Share of the total residues in muscle [6, 11]: 44.1%
- Share of the residual amount in fat [2, 12]: 70.0%
- Share of the residual amount in kidney [2, 12]: 1.0%
- Share of the residual amount in liver [2, 12]: 71.7%
- Share of the residual amount in muscle [2, 12]: 42.1%

Compound: [3H]c1cc(N)ccc1S(=O)(=O)Nc1cc(C)on1 [[^3H]-SMZ, 2-[^3H]-sulfamethoxazole]
- Recovery of total radioactivity in feces ([7]; 0–0.5 d): 5.56 ± 0.42%
- Recovery of total radioactivity in urine ([7]; 0–0.5 d): 60.02 ± 16.54%
- Total radioactive recovery rate (urine and feces) ([7]; 0–0.5 d): exceeds 65%
- Recovery of total radioactivity in feces ([7]; 0–14 d): 14.72 ± 1.31%
- Recovery of total radioactivity in feces ([7]; 0.5–1 d): 2.69 ± 3.12%
- Recovery of total radioactivity in urine ([7]; 0.5–1 d): 15.3 ± 8.73%
- Recovery of total radioactivity in feces ([7]; 1–3 d): 5.19 ± 3.36%
- Recovery of total radioactivity in urine ([7]; 1–3 d): 4.52 ± 2.22%
- Recovery of total radioactivity in feces ([7]; 3–7 d): 0.82 ± 0.34%
- Recovery of total radioactivity in urine ([7]; 3–7 d): 0.59 ± 0.17%
- Recovery of total radioactivity in feces ([7]; 7–14 d): 0.45 ± 0.3%
- Recovery of total radioactivity in urine ([7]; 7–14 d): 0.16 ± 0.04%
- Recovery of total radioactivity in feces [13]: 14.31 ± 1.73%
- Recovery of total radioactivity in urine [13]: 45.38 ± 6.09%
- Recovery of total radioactivity in feces (female rats, single i.m. 25 mg/kg b.w., 0–14 d): 19.58 ± 2.09%
- Recovery of total radioactivity in feces [14]: 4.45 ± 1.87%
- Recovery of total radioactivity in urine [14]: 19.41 ± 2.15%
- Recovery of total radioactivity in feces [15]: 1.02 ± 0.72%
- Recovery of total radioactivity in urine [15]: 10.09 ± 3.14%
- Recovery of total radioactivity in feces [16]: 0.42 ± 0.28%
- Recovery of total radioactivity in urine [16]: 3.97 ± 1.24%
- Recovery of total radioactivity in feces [17]: 0.05 ± 0.03%
- Recovery of total radioactivity in urine [17]: 0.38 ± 0.17%
- Total recovery of radioactivity (urine + feces) [18]: 97.3 ± 1.16%
- Recovery of total radioactivity in feces [19]: 17.3 ± 1.16%
- Recovery of total radioactivity in urine [19]: 45.33 ± 4.79%
- Recovery of total radioactivity in feces (male rats, single i.m. 25 mg/kg b.w., 0–14 d): 23.24 ± 1.79%
- Recovery of total radioactivity in feces [20]: 5.3 ± 1.43%
- Recovery of total radioactivity in urine [20]: 19.31 ± 7.15%
- Recovery of total radioactivity in feces [21]: 0.35 ± 0.14%
- Recovery of total radioactivity in urine [21]: 7.49 ± 2.04%
- Recovery of total radioactivity in feces [22]: 0.25 ± 0.14%
- Recovery of total radioactivity in urine [22]: 2.7 ± 1.89%
- Recovery of total radioactivity in feces [23]: 0.05 ± 0.03%
- Recovery of total radioactivity in urine [23]: 0.49 ± 0.3%
- Total recovery of radioactivity (urine + feces) [24]: 98.56 ± 2.82%
- Total radioactive recovery rate (urine and feces) (rats, single i.m. 25 mg/kg b.w., 0–0.5 d): > 59%
- Dose excreted (total radioactivity) (rats, single i.m., within 14 days): more than 93%
- Time point of the highest levels of radioactivity in all collected substrates ([6]; pigs, i.m. 7 consecutive days): 12 h
- Recovery of total radioactivity in excreta ([8]; 0–0.5 d, 25 mg/kg): 60.65 ± 13.08%
- Recovery of total radioactivity in excreta ([8]; 0–14 d): 93.39 ± 2.28%
- Recovery of total radioactivity in excreta ([8]; 0.5–1 d): 15.08 ± 6.87%
- Recovery of total radioactivity in excreta ([8]; 1–3 d): 11.91 ± 9.67%
- Recovery of total radioactivity in excreta ([8]; 3–7 d): 5.48 ± 1.89%
- Recovery of total radioactivity in excreta ([8]; 7–14 d): 0.26 ± 0.13%
- Time point of the highest levels of radioactivity in all collected substrates ([2]; chickens, gavage 7 consecutive days): 6 h
- Time point of the highest levels of radioactivity in all collected substrates [9]: 1 h

Compound: CC(=O)ONc1ccc(S(=O)(=O)Nc2cc(C)on2)cc1 [N-acetoxy-SMZ]
- Mutagenicity in the Ames test [10]: weak mutations
- In vitro cytotoxicity relative to S3 [5]: more toxic than S3

Compound: Cc1cc(NS(=O)(=O)c2ccc(N)cc2)no1 [Compound S0, sulfamethoxazole]
- Recovery of total radioactivity in feces ([7]; 0–14 d): 14.7%
- Detection in feces [3]: not detected
- Total recovery of radioactivity (urine + feces) [18]: 97%
- Total recovery of radioactivity (urine + feces) [24]: 98%
- Excreted through feces (rats (sexes together), single i.m. 25 mg/kg b.w., within 14 d): 21.4%
- Share of the total residues in fat [6, 11]: 41.9%
- Share of the total residues in kidney [6, 11]: 33.5%
- Share of the total residues in liver [6, 11]: 34.4%
- Share of the total residues in muscle [6, 11]: 55.9%
